From ChEMBL document CHEMBL1154779, “Synthesis and adrenolytic activity of 1-(1H-indol-4-yloxy)-3-(2-(2-methoxy phenoxy)ethylamino)propan-2-ol analogs and its enantiomers. Part 2” (Eur J Med Chem, 2009)

How the values were obtained:
Rattus norvegicus [1] = experiment: Effect on heart rate in anesthetized Wistar rat assessed as heart beats per min at 1 mg/kg, iv after 1 min by electrocardiography; assay type: functional
Rattus norvegicus [2] = experiment: Effect on heart rate in anesthetized Wistar rat assessed as heart beats per min at 1 mg/kg, iv after 5 mins by electrocardiography; assay type: functional
Rattus norvegicus [3] = experiment: Antiarrhythmic activity in Wistar rat assessed as inhibition of adrenaline-induced premature ventricular beats at 1 mg/kg, iv administered 15 mins before adrenaline challenge measured after 15 mins by electrocardiography; assay type: functional; conditions: Heart
Rattus norvegicus [4] = experiment: Effect on heart rate in anesthetized Wistar rat assessed as P-Q intervals time at 1 mg/kg, iv after 1 min by electrocardiography; assay type: functional
Rattus norvegicus [5] = experiment: Effect on heart rate in anesthetized Wistar rat assessed as QRS complex time at 1 mg/kg, iv after 1 min by electrocardiography; assay type: functional
Rattus norvegicus [6] = experiment: Effect on heart rate in anesthetized Wistar rat assessed as QRS complex time at 1 mg/kg, iv after 5 mins by electrocardiography; assay type: functional
Rattus norvegicus [7] = experiment: Effect on heart rate in anesthetized Wistar rat assessed as QRS complex time at 1 mg/kg, iv after 15 mins by electrocardiography; assay type: functional
Rattus norvegicus [8] = experiment: Effect on heart rate in anesthetized Wistar rat assessed as Q-T intervals time at 1 mg/kg, iv after 1 min by electrocardiography; assay type: functional
Rattus norvegicus [9] = experiment: Effect on heart rate in anesthetized Wistar rat assessed as Q-T intervals time at 1 mg/kg, iv after 5 mins by electrocardiography; assay type: functional
Rattus norvegicus [10] = experiment: Effect on heart rate in anesthetized Wistar rat assessed as Q-T intervals time at 1 mg/kg, iv after 15 mins by electrocardiography; assay type: functional
Rattus norvegicus [11] = experiment: Effect on heart rate in anesthetized Wistar rat assessed as heart beats per min at 1 mg/kg, iv after 15 mins by electrocardiography; assay type: functional
[12] = Displacement of [3H]CGP12177 from beta-1 adrenergic receptor in Wistar rat cerebral cortex membrane by liquid scintillation counting; assay type: tissue-based
Rattus norvegicus [13] = experiment: Effect on heart rate in anesthetized Wistar rat assessed as P-Q intervals time at 1 mg/kg, iv after 5 mins by electrocardiography; assay type: functional
Rattus norvegicus [14] = experiment: Effect on heart rate in anesthetized Wistar rat assessed as P-Q intervals time at 1 mg/kg, iv after 15 mins by electrocardiography; assay type: functional

Ki [12] [nM] | SMILES | Activity (Rattus norvegicus [1]) [bpm] | Activity (Rattus norvegicus [2]) [bpm] | ED50 (Rattus norvegicus [3]) [mg/kg] | Activity (Rattus norvegicus [4]) [ms] | Activity (Rattus norvegicus [5]) [ms] | Activity (Rattus norvegicus [6]) [ms] | Activity (Rattus norvegicus [7]) [ms] | Activity (Rattus norvegicus [8]) [ms] | Activity (Rattus norvegicus [9]) [ms] | Activity (Rattus norvegicus [10]) [ms] | Activity (Rattus norvegicus [11]) [bpm] | Activity (Rattus norvegicus [13]) [ms] | Activity (Rattus norvegicus [14]) [ms]
 | COc1ccccc1OCCNCC(O)COc1cccc2[nH]c3ccccc3c12 (stereo not drawn) [CARVEDILOL] | 345.2 | 340.3 | 0.25 | 50 |  |  |  |  |  |  |  |  | 
3 | COc1ccccc1OCCNCC(O)COc1cccc2[nH]ccc12 (racemic) | 298.7 | 294.5 | 0.34 | 47.2 | 28.4 | 24.9 | 26.9 | 69.2 | 69 | 72.8 | 287.3 | 48.1 | 46.2
